Where “and” joins values, the source holds several entries; their conditions need not be identical. Equal entries are not always repeated.
Legend:
[1] = test system: Brassica napus (Nexera canola, BRSNN-NEX); test: Greenhouse postemergence application, visual injury after 20-22 d, BRSNN-NEX; details: for Obs % visual injury: BRSNN-NEX
Procedure: (§1) Seeds of the desired test plant species were planted in Sun Gro MetroMix® 306 planting mixture, which typically has a pH of 6.0 to 6.8 and an organic matter content of about 30 percent, in plastic pots with a surface area of 103.2 square centimeters (cm^2). […] The plants were grown for 7-36 days (d) in a greenhouse with an approximate 14-hour (h) photoperiod which was maintained at about 23° C. during the day and 22° C. during the night. Nutrients and water were added on a regular basis and supplemental lighting was provided with overhead metal halide 1000-Watt lamps as necessary. The plants were employed for testing when they reached the second or third true leaf stage.
(§2) An aliquot of formulated benzyl 4-amino-3-chloro-6-(4-chloro-2-fluoro-3-methoxyphenyl)-5-fluoropyridine-2-carboxylate (florpyrauxifen-benzyl; 300 grams active ingredient per liter (g ai/L) suspension concentrate (SC)) was placed in a 25 mL glass vial and diluted in a volume of 1.25% (v/v) aqueous Agri-dex crop oil concentrated to obtain a stock solution. […] The concentrated stock solutions were diluted with an aqueous mixture of 1.25% v/v of aqueous Agri-dex crop oil concentrate to provide the appropriate application rates. Compound requirements are based upon a 12 milliliter (mL) application volume at a rate of 187 liters per hectare (L/ha). Stock solutions of the formulated materials were prepared following the same procedure. Spray solutions of the compound mixtures were prepared by adding the stock solutions to the appropriate amount of dilution solution to form a 12 mL spray solution. Formulated compounds were applied to the plant material with an overhead Mandel track sprayer equipped with 8002E nozzles calibrated to deliver 187 L/ha over an application area of 0.503 square meters (m^2) at a spray height of 18 inches (43 centimeters (cm)) above average plant canopy. Control plants were sprayed in the same manner with the solvent blank.
(§3) The treated plants and control plants were placed in a greenhouse as described above and watered by sub-irrigation to prevent wash-off of the test compounds. After 20-22 d, the condition of the test plants as compared with that of the control plants was determined visually and scored on a scale of 0 to 100 percent where 0 corresponds to no injury and 100 corresponds to complete kill. Colby's equation was used to determine the herbicidal effects expected from the mixtures.
(§4) Benzyl 4-amino-3-chloro-6-(4-chloro-2-fluoro-3-methoxyphenyl)-5-fluoropyridine-2-carboxylate (florpyrauxifen-benzyl, 300 g ai/L SC) was combined in two-, three-, and four-way mixtures with one or more of the following: clopyralid-olamine (as Lontrel™ 35A Herbicidal Concentrate), quinclorac (as Facet 75DF), isoxadifen-ethyl (100 g/L SC), cloquintocet-mexyl (120 g/L EC) or mefenpyr-diethyl (as mefenpyr-diethyl 15WP). The mixtures were applied to kale/Chinese kale (Brassica alboglabra, BRSAG), Juncea canola or brown mustard (Brassica juncea, BRSJU), rutabaga (Brassica napus var. napobrassica, BRSNA), all varieties of canola and oilseed rape (Brassica napus, BRSNN), Nexera™ canola (Brassica napus, BRSNN-NEX), winter oilseed rape (Brassica napus, BRSNW), Roundup Ready® canola (Brassica napus, RR-BRSNN), and turnip or Polish canola (Brassica rapa, BRSRR), and the phytotoxicity of the compositions was measured.
(§5) Colby's equation was used to determine the herbicidal effects expected from the mixtures evaluated in the described trials (Colby, S. R. Calculation of the synergistic and antagonistic response of herbicide combinations. Weeds 1967, 15, 20-22.).
(§6) The following equation was used to calculate the expected activity of mixtures containing two active ingredients, A and B: Expected=A+B−(A×B/100) • A=observed efficacy of active ingredient A at the same concentration as used in the mixture; • B=observed efficacy of active ingredient B at the same concentration as used in the mixture.

[2] = test system: Brassica napus (all varieties of canola and oilseed rape, BRSNN); test: Greenhouse postemergence application, visual injury after 20-22 d, BRSNN; details: for Obs % visual injury: BRSNN
Procedure: as §1, §2, §3, §4, §5, §6

[3] = test system: Brassica juncea (Juncea canola or brown mustard, BRSJU); test: Greenhouse postemergence application, visual injury after 20-22 d, BRSJU; details: for Obs % visual injury: BRSJU
Procedure: as §1, §2, §3, §4, §5, §6

[4] = test system: Brassica rapa (turnip or Polish canola, BRSRR); test: Greenhouse postemergence application, visual injury after 20-22 d, BRSRR; details: for Obs % visual injury: BRSRR
Procedure: as §1, §2, §3, §4, §5, §6

[5] = test system: Brassica napus var. napobrassica (rutabaga, BRSNA); test: Greenhouse postemergence application, visual injury after 20-22 d, BRSNA; details: for Obs % visual injury: BRSNA
Procedure: as §1, §2, §3, §4, §5, §6

[6] = test system: Brassica napus (Roundup Ready canola, RR-BRSNN); test: Greenhouse postemergence application, visual injury after 20-22 d, RR-BRSNN; details: for Obs % visual injury: RR-BRSNN
Procedure: as §1, §2, §3, §4, §5, §6

[7] = test system: Brassica alboglabra (kale/Chinese kale, BRSAG); test: Greenhouse postemergence application, visual injury after 20-22 d, BRSAG; details: for Obs % visual injury: BRSAG
Procedure: as §1, §2, §3, §4, §5, §6

[8] = test system: Brassica napus (winter oilseed rape, BRSNW); test: Greenhouse postemergence application, visual injury after 20-22 d, BRSNW; details: for Obs % visual injury: BRSNW
Procedure: as §1, §2, §3, §4, §5, §6

[9] = clopyralid-olamine 50 g ai/ha alone
[10] = clopyralid-olamine 100 g ai/ha alone
[11] = clopyralid-olamine 200 g ai/ha alone
[12] = postemergence application, greenhouse, application rate (g ai/ha) varies

CCOC(=O)C1=NN(c2ccc(Cl)cc2Cl)C(C)(C(=O)OCC)C1 (racemic) [Mefenpyr-diethyl, diethyl (RS)-1-(2,4-dichlorophenyl)-5-methyl-2-pyrazoline-3,5-dicarboxylate]
0%: Obs % visual injury BRSNN-NEX ([1]; safener alone 5 g ai/ha) | Obs % visual injury BRSNN-NEX ([1]; safener alone 10 g ai/ha) | Obs % visual injury BRSNN-NEX ([1]; safener alone 20 g ai/ha) | Obs % visual injury BRSNN-NEX ([1]; safener alone 40 g ai/ha) | Obs % visual injury BRSNN ([2]; safener alone 5 g ai/ha) | Obs % visual injury BRSNN ([2]; safener alone 10 g ai/ha) | Obs % visual injury BRSNN ([2]; safener alone 20 g ai/ha) | Obs % visual injury BRSNN ([2]; safener alone 40 g ai/ha) | Obs % visual injury BRSJU ([3]; safener alone 5 g ai/ha) | Obs % visual injury BRSJU ([3]; safener alone 10 g ai/ha) | Obs % visual injury BRSJU ([3]; safener alone 20 g ai/ha) | Obs % visual injury BRSJU ([3]; safener alone 40 g ai/ha) | Obs % visual injury BRSRR ([4]; safener alone 5 g ai/ha) | Obs % visual injury BRSRR ([4]; safener alone 10 g ai/ha) | Obs % visual injury BRSRR ([4]; safener alone 20 g ai/ha) | Obs % visual injury BRSRR ([4]; safener alone 40 g ai/ha) | Obs % visual injury BRSNA ([5]; safener alone 5 g ai/ha) | Obs % visual injury BRSNA ([5]; safener alone 10 g ai/ha) | Obs % visual injury BRSNA ([5]; safener alone 20 g ai/ha) | Obs % visual injury BRSNA ([5]; safener alone 40 g ai/ha) | Obs % visual injury RR-BRSNN ([6]; safener alone 5 g ai/ha) | Obs % visual injury RR-BRSNN ([6]; safener alone 10 g ai/ha) | Obs % visual injury RR-BRSNN ([6]; safener alone 20 g ai/ha) | Obs % visual injury RR-BRSNN ([6]; safener alone 40 g ai/ha) | Obs % visual injury BRSAG ([7]; safener alone 5 g ai/ha) | Obs % visual injury BRSAG ([7]; safener alone 10 g ai/ha) | Obs % visual injury BRSAG ([7]; safener alone 20 g ai/ha) | Obs % visual injury BRSAG ([7]; safener alone 40 g ai/ha) | Obs % visual injury BRSNW ([8]; safener alone 5 g ai/ha) | Obs % visual injury BRSNW ([8]; safener alone 10 g ai/ha) | Obs % visual injury BRSNW ([8]; safener alone 20 g ai/ha) | Obs % visual injury BRSNW ([8]; safener alone 40 g ai/ha)

O=C(O)c1nc(Cl)ccc1Cl [Clopyralid-olamine, 2-hydroxyethanaminium 3,6-dichloro-2-pyridinecarboxylate]
0%: Obs % visual injury ([1]; partner alone 50 g ai/ha) | Obs % visual injury ([1]; partner alone 100 g ai/ha) | Obs % visual injury ([1]; partner alone 200 g ai/ha) | % Visual Injury BRSNN-NEX Obs [1, 9] | % Visual Injury Obs [1, 9] | % Visual Injury BRSNN-NEX Obs [1, 10] | % Visual Injury Obs [1, 10] | % Visual Injury BRSNN-NEX Obs [1, 11] | % Visual Injury Obs [1, 11] | % Visual Injury BRSNN-NEX Obs [1, 12] | Obs % visual injury ([2]; partner alone 100 g ai/ha) | Obs % visual injury ([2]; partner alone 200 g ai/ha) | % Visual Injury BRSNN Obs [2, 10] | % Visual Injury Obs [2, 10] | % Visual Injury BRSNN Obs [2, 11] | % Visual Injury Obs [2, 11] | Obs % visual injury ([3]; partner alone 50 g ai/ha) | Obs % visual injury ([3]; partner alone 100 g ai/ha) | Obs % visual injury ([3]; partner alone 200 g ai/ha) | % Visual Injury BRSJU Obs [3, 9] | % Visual Injury Obs [3, 9] | % Visual Injury BRSJU Obs [3, 10] | % Visual Injury Obs [3, 10] | % Visual Injury BRSJU Obs [3, 11] | % Visual Injury Obs [3, 11] | % Visual Injury BRSJU Obs [3, 12] | Obs % visual injury ([4]; partner alone 50 g ai/ha) | Obs % visual injury ([4]; partner alone 100 g ai/ha) | Obs % visual injury ([4]; partner alone 200 g ai/ha) | % Visual Injury BRSRR Obs [4, 9] | % Visual Injury Obs [4, 9] | % Visual Injury BRSRR Obs [4, 10] | % Visual Injury Obs [4, 10] | % Visual Injury BRSRR Obs [4, 11] | % Visual Injury Obs [4, 11] | % Visual Injury BRSRR Obs [4, 12] | Obs % visual injury ([5]; partner alone 50 g ai/ha) | Obs % visual injury ([5]; partner alone 100 g ai/ha) | Obs % visual injury ([5]; partner alone 200 g ai/ha) | % Visual Injury BRSNA Obs [5, 9] | % Visual Injury Obs [5, 9] | % Visual Injury BRSNA Obs [5, 10] | % Visual Injury Obs [5, 10] | % Visual Injury BRSNA Obs [5, 11] | % Visual Injury Obs [5, 11] | % Visual Injury BRSNA Obs [5, 12] | Obs % visual injury ([6]; partner alone 50 g ai/ha) | Obs % visual injury ([6]; partner alone 100 g ai/ha) | Obs % visual injury ([6]; partner alone 200 g ai/ha) | % Visual Injury Obs [6, 9] | % Visual Injury RR-BRSNN Obs [6, 9] | % Visual Injury Obs [6, 10] | % Visual Injury RR-BRSNN Obs [6, 10] | % Visual Injury Obs [6, 11] | % Visual Injury RR-BRSNN Obs [6, 11] | % Visual Injury RR-BRSNN Obs [6, 12] | Obs % visual injury ([7]; partner alone 50 g ai/ha) | Obs % visual injury ([7]; partner alone 100 g ai/ha) | Obs % visual injury ([7]; partner alone 200 g ai/ha) | % Visual Injury BRSAG Obs [7, 9] | % Visual Injury Obs [7, 9] | % Visual Injury BRSAG Obs [7, 10] | % Visual Injury Obs [7, 10] | % Visual Injury BRSAG Obs [7, 11] | % Visual Injury Obs [7, 11] | % Visual Injury BRSAG Obs [7, 12] | Obs % visual injury ([8]; partner alone 50 g ai/ha) | Obs % visual injury ([8]; partner alone 100 g ai/ha) | Obs % visual injury ([8]; partner alone 200 g ai/ha) | % Visual Injury BRSNW Obs [8, 9] | % Visual Injury Obs [8, 9] | % Visual Injury BRSNW Obs [8, 10] | % Visual Injury Obs [8, 10] | % Visual Injury BRSNW Obs [8, 11] | % Visual Injury Obs [8, 11] | % Visual Injury BRSNW Obs [8, 12]
2%: Obs % visual injury ([2]; partner alone 50 g ai/ha) | % Visual Injury BRSNN Obs [2, 9] | % Visual Injury Obs [2, 9]
2% and 0%: % Visual Injury BRSNN Obs [2, 12]

Source: US10219513B2, “Safening 4-amino-3-chloro-6-(4-chloro-2-fluoro-3-methoxyphenyl)-5-fluoropyridine-2-carboxylic acid compositions in Brassica species and methods of use thereof” (Dow AgroSciences LLC, priority 2016, dated 2019)
